Assay results published in patent US20080089894A1, “Transplant tolerance by costimulation blockade and T-cell activation-induced apoptosis” (priority 1998, published 2008).
Several values for one entry are separate records, joined by “and”; a condition that tells them apart may be missing. Equal entries are not always repeated.

Test system: BALB/c mouse heart allografts
Assay: BALB/c mouse heart allograft survival in C3H/He mice
Type: in vivo
Settings: BALB/c heart allograft in C3H/He host; one value per mouse; checked daily by palpitation; time in days
Experimental: A control group of three C3H/He mice received syngeneic transplants. The treatments were given as follows:
Group 1) Anti-CD40L+CTLA4-Ig
Anti-CD40L: 250 μg/injection i.v. (intravenous) on day 0, i.p. (intraperitoneal) on day +2, +4,
CTLA4-Ig: 200 μg/injection i.p. on day 0, +2, +4, +6.
Anti-CD40L: 250 μg/injection i.v. on day 0, i.p. on day +2, +4,
CTLA4-Ig: 200 μg/injection i.p. on day 0, +2, +4, +6,
Group 3) Anti-CD40L+CTLA4-Ig+RPM
CTLA4-Ig: 200 μg/injection i.p. on day 0, +2, +4, +6
RPM: 0.2 mg/kg/day i.p. on day 0, +1, +2, then every other day to day +14.
RPM: 0.2 mg/kg/day i.p. on day 0, +1, +2, then every other day to day +14. The hosts were checked daily for graft survival by palpitation. In addition, other mice were sacrificed for pathologic examination at various time points.

## CO[C@H]1C[C@@H]2CC[C@@H](C)[C@@](O)(O2)C(=O)C(=O)N2CCCC[C@H]2C(=O)O[C@H]([C@H](C)C[C@@H]2CC[C@@H](O)[C@H](OC)C2)CC(=O)[C@H](C)/C=C(\C)[C@@H](O)[C@@H](OC)C(=O)[C@H](C)C[C@H](C)/C=C/C=C/C=C/1C [RPM, rapamycin]
  Graft Survival: > 100 (3×) and > 97 and > 89
